Patent publication US9649297B2, “Treatment of ADHD” (Gosforth Centre (Holdings) Pty Ltd., priority 2007, dated 2017)
Where a name gives a salt, the structure may show the parent alone.

Legend:
[1] = tested on: epileptics and individuals with bipolar disorders; settings: per day; usual minimum anti-convulsant dose; cited from earlier work
[2] = tested on: patients who had symptoms of ADHD; assay: Clinical study with anti-epileptic mood stabilisers alone in patients with symptoms of ADHD (Example 3); format: in vivo, human; settings: for patient-reported improvements (self and other rating scales, clinical assessments): monotherapy without stimulant, topiramate 12.5-50 mg/day, Phenytoin 30-60 mg/day, valproate same dose range as combined treatment
Excerpt: The improvements assessed using self and other rating scales objective psychometric tool together with repeated clinical assessments.

[3] = tested on: ADHD patients
Method: A. Topiramate in Combination with Dexamphetamine (n=11)
The third trial clinical has been with phenytoin and a psychostimulant (n=8). Phenytoin is less often used for its psychoactive properties than either valproate or topiramate. […] The assessment methods were as per the trials with valproate and topiramate.
C. Phenytoin in Combination with Dexamphetamine (n=6)
E. Sodium Valproate in Combination with Methylphenidate (n=4) • Sodium Valproate: average 1.6 mg/kg/day (130 mg/day) • Methylphenidate: average 1.2 mg/kg/day (84 mg/day)

[4] = tested on: adults with ADHD
Method: The initial dosages used were from 15 to 70 mg/day of dexamphetamine and from 100 to 700 mg/day of VPA (Epilim) (=approximately 2 to 10 mg/kg/day).
The determination of the dose for the dexamphetamine was undertaken in a clinical sensitive open label manner. The dose was titrated upwards dependent on the clinical response and the freedom from side-effects. The dose range was between 15 and 70 mg a day. The frequency of the dosing also varied dependent upon the clinical response. The usual dose interval was between two to four hours. This dosing adjustment took place prior to the commencement of the sodium valproate. The sodium valproate medication was initiated once a day at 50 mg tablet or elixir and titrated upwards dependent on response, but not more than one increase every three days. The dose was given as a once or twice a day regime. During the titration phase, if clinically possible, no other adjustments to the pharmacotherapy were undertaken.
The dosages of sodium valproate, after adjustment, varied between 50 mg/day, 100 mg/day, 150 mg/day or 200 mg/day (number of patients—120), with the majority of patients receiving between 50 to 150 mg/day with […] usually the maximum.
The results were assessed using the Conners Adult ADHD Rating scales completed by the patient and observer (usually partner or parent). In a sample of 26 patients who completed self CAARS rating scales at; pre treatment, stable on stimulant and stable on anti-epileptic drug (AED).

[5] = tested on: patients with a diagnosis of GAD; assay: Treatment of Generalised Anxiety Disorder (GAD) with low dose AED (Example 5); format: in vivo, human; settings: 50 to 150 mg, without co-administration of a stimulant
Method: The diagnostic criteria cited for inclusion in this study included reference to excessive anxiety and worry which had been present for at least 6 months and which was difficult to control and associated with difficulty concentrating, becoming easily fatigued, restlessness or feeling keyed up or on edge and sleep disturbance. […] The medication was well tolerated with few side effects at the dose given. The improvement was evaluated using self and observer rating scales together with clinician review. As in the ADHD trials response usually commenced within 3-7 days. Due to the robust and persistent benefit, six months at the time of writing, many of the other psychotropic medications were reduced or even ceased.

[6] = low dose sodium valproate with dexamphetamine

SMILES | Minimum Dose/day effective for mood stabilisation [1] | also measured
COC1=CC(=O)OC1C(O)c1ccccc1Cl (centres unmarked) [Losigamone] | 1500 mg | –
CCC1(c2ccccc2)NC(=O)N(C)C1=O (centres unmarked) [Mephenytoin] | 200 mg | –
CCN1C(=O)NC(c2ccccc2)C1=O (centres unmarked) [Ethotoin, 3-ethyl-5-phenyl-imidazolidine-2,4-dione] | 1000 mg | –
CC1(C)O[C@@H]2[C@@H](CO[C@@]3(COS(N)(=O)=O)OC(C)(C)O[C@@H]23)O1 [Topiramate, 2,3:4,5-Bis-O-(1-methylethylidene)-beta-D-fructopyranose sulfamate] | 100 mg | patient-reported improvements (self and other rating scales, clinical assessments) [2]: improvements in the organisation of thoughts in conversation and reading comprehension; effect on coordination, organisation and motivation ([2]; topiramate alone 12.5-50 mg/day): effect on coordination, as well as improved organisation and motivation; tolerability at initial titration ([3]; 25 mg increasing to 125 mg daily, with stimulant): intolerable side effects and ceasing of medication; Conners' Adult ADHD Rating scales (self and observer), DEM, clinician interview ([3]; re-titration commencing at 6.25 or 12.5 mg, with stimulant): significant improvements
Nc1nnc(-c2cccc(Cl)c2Cl)c(N)n1 [Lamotrigine] | 100 mg | –
Cc1ccsc1C(=CCCN1CCC[C@H](C(=O)O)C1)c1sccc1C [Tiagabine Hydrochloride, (3S)-1-[4,4-bis(3-methylthiophen-2-yl)but-3-enyl]piperidine-3-carboxylic acid] | 30 mg | –
CCCC(CCC)C(=O)O.[Na] [sodium valproate, sodium di-n-propylacetic acid] | – | psychosocial functioning (patient description, clinical review) ([4]; VPA added to dexamphetamine, dose below that for bipolar disorder): overall improvement in psychosocial functioning; adverse effect at higher dosages ([4]; in vivo): general cognitive and a resultant loss of efficacy; adverse effect at higher doses ([4]; in vivo): general cognitive slowing and the resultant loss of efficacy; oculomotor function, Developmental Eye Movement Test (DEM) [4, 6]: has shown improvement; reading and verbal comprehension abilities (patient report) [4, 6]: improvement in their reading and verbal comprehension abilities; patient-reported improvements (self and other rating scales, clinical assessments) [2]: improvements in the organisation of thoughts in conversation and reading comprehension; function and symptoms in Generalised Anxiety Disorder [5]: sustained improvement in function and a reduction in symptoms
NC(=O)OCC(COC(N)=O)c1ccccc1 [Felbamate] | 1200 mg | –
CCN1C(=O)OC(C)(C)C1=O [Ethadione] | 1000 mg | –
NS(=O)(=O)Cc1noc2ccccc12 [Zonisamide] | 200 mg | –
CC[C@@H](C(N)=O)N1CCCC1=O [Levetiracetam] | 1000 mg | –
NC(=O)N1c2ccccc2C=Cc2ccccc21 [Carbamazepine, (Z)-5H-dibenzo[b,f]azepine-5-carboxamide] | 400 mg | –
CC(C)C[C@H](CN)CC(=O)O [Pregabalin, (S)-3-(aminomethyl)-5-methylhexanoic acid] | 300 mg | –
CCC1(c2ccccc2)C(=O)NC(=O)NC1=O.CNC(C)CC1CCCCC1 [Barbexaclone] | 200 mg in divided doses | –
CN1C(=O)CC(=O)N(c2ccccc2)c2cc(Cl)ccc21 [Clobazam] | 5 mg/kg daily | –
O=C1NC(=O)C(c2ccccc2)(c2ccccc2)N1 [Phenytoin, 5,5-diphenylimidazolidine-2,4-dione] | 200 mg | patient-reported improvements (self and other rating scales, clinical assessments) [2]: improvements in the organisation of thoughts in conversation and reading comprehension; overall effect and tolerability ([3]; phenytoin at low dose with a psychostimulant, n=8): robust and well tolerated effect in eight patients
NC(=O)N1c2ccccc2CC(=O)c2ccccc21 [Oxcarbazepine, 10,11-Dihydro-10-oxo-5H-dibenz[b,f]azepine-5-carboxamide] | 600 mg | –
NC(=O)c1cn(Cc2c(F)cccc2F)nn1 [Rufinamide] | 400 mg | –
CCC1(c2ccccc2)C(=O)NCNC1=O [Primidone] | 750 mg | –
O=C1CN=C(c2ccccc2Cl)c2cc([N+](=O)[O-])ccc2N1 [Clonazepam] | 1 mg | –
C=CC(N)CCC(=O)O (centres unmarked) [Vigabatrin] | 1000 mg | –
NCC1(CC(=O)O)CCCCC1 [Gabapentin, 2-[1-(aminomethyl)cyclohexyl]acetic acid] | 900 mg | –
CCC(C(=O)NC(N)=O)c1ccccc1 (centres unmarked) [Pheneturide] | 600 mg | –
O=C1NC(c2ccccc2)(c2ccccc2)C(=O)N1COP(=O)(O)O [Fosphenytoin Sodium] | 10 mg/kg | –
NS(=O)(=O)c1ccc(N2CCCCS2(=O)=O)cc1 [Sultiame] | 200 mg | –
CCC1(C)CC(=O)NC1=O (centres unmarked) [Ethosuximide] | 1000 mg | –
